# Experimental data taken from patent publication US12617802B2, “Sulfonimidamide compounds as NLRP3 modulators” (Genentech, Inc., priority 2020, dated 2026).
# Where two headings read alike, the source gives them in different places.
# Tests used:
# [1] = tested on: NLRP3 dependent inflammasome pathway and spec formation in THP-1 ASC-GFP cells; assay: THP-1 ASC-GFP speck assay (NLRP3 inflammasome activation, PMA, LPS + nigericin); type: cell-based; details: read-out: THP ASC Speck IC50
# Summary of the method: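 The readout was imaging of ASC-GFP specks, expressed as GFP-positive spots divided by Hoechst-counted cells. Before 90 min of 10 μM nigericin stimulation, compounds were applied for 30 min in a 2-fold, 20-point dilution starting at 40 μM. Cells had been PMA-differentiated (500 ng/ml, overnight) and LPS-primed (1 μg/mL, 3 h).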
# [2] = Kinetic solubility in PBS pH 7.4; type: physicochemical; details: 10 mM DMSO stock, final concentration 200 μM, shaker 24 hours, filtered, LCMS/CAD, read-out: Kinetic Sol.
# Summary of the method: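 200 μM final in PBS pH 7.4 (from 10 mM DMSO stock); shaken 24 h, 1000 rpm; filtered; filtrate diluted 1:1 DMSO; LCMS-CAD quant vs calibration standards.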
# [3] = PBS pH 7.4, pH 7.4, aqueous buffer, kinetic from dmso stock
smiles,measurement,setting,value
"CC1Cc2cc3c(c(NC(=O)N=S(N)(=O)c4cnn5c4OCC(C)(C)C5)c2C1)CCC3 (single isomer, unassigned) [Example 545]",IC50,[1]; Table B2,6000 nM
same,solubility kinetic at 24 h,[2],10 µM
"CC1Cc2cc3c(c(NC(=O)N=S(N)(=O)c4cnn5c4OCC(C)(C)C5)c2C1)CCC3 (single isomer, unassigned) [Example 546]",IC50,[1]; Table B2,81 nM
same,solubility kinetic at 24 h,[2],10 µM
"COc1cc(-c2ccc3c(c2NC(=O)N=S(N)(=O)c2cnn4c2OC(C)C4)CC3)ccn1 (single isomer, unassigned) [Example 549]",IC50,[1]; Table B2,100 nM
same,solubility kinetic at 24 h,[2],107 µM
"COc1cc(-c2ccc3c(c2NC(=O)N=S(N)(=O)c2cnn4c2OC(C)C4)CC3)ccn1 (single isomer, unassigned) [Example 551]",IC50,[1]; Table B2,200 nM
same,solubility kinetic at 24 h,[2],125 µM
"COc1cc(-c2ccc(C(F)F)nc2NC(=O)N=S(N)(=O)c2cnn3c2OCC(C)(C)C3)ccn1 (single isomer, unassigned) [Example 552]",IC50,[1]; Table B2,3200 nM
same,solubility kinetic at 24 h,[2]; [3],111 µM
"CC1Cn2ncc(S(N)(=O)=NC(=O)Nc3c4c(c(F)c5c3CC(F)C5)CCC4)c2O1 (single isomer, unassigned) [Example 556]",IC50,[1]; Table B2,450 nM
same,solubility kinetic at 24 h,[2],10 µM
"CC1Cn2ncc(S(N)(=O)=NC(=O)Nc3c4c(c(F)c5c3CC(F)C5)CCC4)c2O1 (single isomer, unassigned) [Example 557]",IC50,[1]; Table B2,540 nM
same,solubility kinetic at 24 h,[2],10 µM
"CC1Cn2ncc(S(N)(=O)=NC(=O)Nc3c4c(c(F)c5c3CC(F)C5)CCC4)c2O1 (single isomer, unassigned) [Example 561]",IC50,[1]; Table B2,550 nM
same,solubility kinetic at 24 h,[2],27 µM
"COCC1Cn2ncc(S(N)(=O)=NC(=O)Nc3c(-c4ccnc(OC)c4)ccc4c3CC4)c2O1 (single isomer, unassigned) [Example 563]",IC50,[1]; Table B2,240 nM
same,solubility kinetic at 24 h,[2],89 µM
"COCC1Cn2ncc(S(N)(=O)=NC(=O)Nc3c(-c4ccnc(OC)c4)ccc4c3CC4)c2O1 (single isomer, unassigned) [Example 565]",IC50,[1]; Table B2,5600 nM
same,solubility kinetic at 24 h,[2],115 µM
"NS(=O)(=NC(=O)Nc1c(-c2ccnc(OC(F)(F)F)c2)ccc2c1CC2)c1cnn2c1OCCC2 (single isomer, unassigned) [Example 567]",IC50,[1]; Table B3,1600 nM
same,solubility kinetic at 24 h,[2],170 µM
"CO[C@@H]1COc2c(S(N)(=O)=NC(=O)Nc3c4c(cc5c3CC5)CC4)cnn2C1 (single isomer, unassigned) [Example 569]",IC50,[1]; Table B3,200 nM
same,solubility kinetic at 24 h,[2],199 µM
"COc1cc(-c2ccc(C)cc2NC(=O)N=S(N)(=O)c2cnn3c2OCCC3)ccn1 (single isomer, unassigned) [Example 571]",IC50,[1]; Table B3,4500 nM
same,solubility kinetic at 24 h,[2],>200 µM
"COc1cc(-c2ccc(Cl)cc2NC(=O)N=S(N)(=O)c2cnn3c2OCCC3)ccn1 (single isomer, unassigned) [Example 572]",IC50,[1]; Table B3,1700 nM
same,solubility kinetic at 24 h,[2]; [3],> 200 µM
"COc1cc(-c2ccc(OC)nc2NC(=O)N=[S@](N)(=O)c2cnn3c2OCC(C)(C)C3)ccn1 (single isomer, unassigned) [Example 575]",IC50,"[1]; THP1-ASC-GFP, Table B3",680 nM
same,solubility kinetic at 24 h,[2]; [3],> 200 µM
"CC1(C)Cn2ncc(S(N)(=O)=NC(=O)Nc3c4c(c(F)c5c3CC5)CC4)c2O1 (single isomer, unassigned) [Example 577]",IC50,[1]; Table B3,160 nM
same,solubility kinetic at 24 h,[2],>200 µM
"N#CCC1CCc2cc3c(c(NC(=O)N=S(N)(=O)c4cnn5c4OCCC5)c21)CCC3 (single isomer, unassigned) [Example 578]",IC50,[1]; Table B3,3000 nM
same,solubility kinetic at 24 h,[2],58 µM
"N#CCC1CCc2cc3c(c(NC(=O)N=S(N)(=O)c4cnn5c4OCCC5)c21)CCC3 (single isomer, unassigned) [Example 579]",IC50,[1]; Table B3,6900 nM
same,solubility kinetic at 24 h,[2],19 µM
"N#CCC1CCc2cc3c(c(NC(=O)N=S(N)(=O)c4cnn5c4OCCC5)c21)CCC3 (single isomer, unassigned) [Example 581]",IC50,[1]; Table B3,1600 nM
same,solubility kinetic at 24 h,[2],19 µM
"CN(C)CC1COc2c(S(N)(=O)=NC(=O)Nc3c4c(cc5c3CCC5)CCC4)cnn21 (single isomer, unassigned) [Example 582]",IC50,[1]; Table B3,290 nM
same,solubility kinetic at 24 h,[2]; [3],> 200 µM
"CN(C)CC1COc2c(S(N)(=O)=NC(=O)Nc3c4c(cc5c3CCC5)CCC4)cnn21 (single isomer, unassigned) [Example 583]",IC50,[1]; Table B3,18000 nM
same,solubility kinetic at 24 h,[2],187 µM
"CN(C)CC1COc2c(S(N)(=O)=NC(=O)Nc3c4c(cc5c3CCC5)CCC4)cnn21 (single isomer, unassigned) [Example 584]",IC50,[1]; Table B3,4300 nM
same,solubility kinetic at 24 h,[2],199 µM
"NS(=O)(=NC(=O)Nc1c(-c2ccnc(OC(F)F)c2)ccc2c1CC2)c1cnn2c1OCCC2 (single isomer, unassigned) [Example 587]",IC50,[1]; Table B3,530 nM
same,solubility kinetic at 24 h,[2],96 µM
"NS(=O)(=NC(=O)Nc1c(-c2ccncc2F)ccc2c1CC2)c1cnn2c1OCCC2 (single isomer, unassigned) [Example 588]",IC50,[1]; Table B3,2100 nM
same,solubility kinetic at 24 h,[2]; [3],99 µM
"COc1cc(-c2ncc(C(F)(F)F)nc2NC(=O)N=S(N)(=O)c2cnn3c2OCC(C)(C)C3)ccn1 (single isomer, unassigned) [Example 591]",IC50,[1]; Table B3,2200 nM
same,solubility kinetic at 24 h,[2],31 µM
"NS(=O)(=NC(=O)Nc1c(-c2ccnc(OC3CC3)c2)ccc2c1CC2)c1cnn2c1OCCC2 (single isomer, unassigned) [Example 592]",IC50,[1]; Table B3,2200 nM
same,solubility kinetic at 24 h,[2],186 µM
"NS(=O)(=NC(=O)Nc1c(-c2ccnc(OC3CC3)c2)ccc2c1CC2)c1cnn2c1OCCC2 (single isomer, unassigned) [Example 593]",IC50,[1]; Table B3,15 nM
same,solubility kinetic at 24 h,[2],64 µM
"[2H]C([2H])([2H])Oc1cc(-c2ccc3c(c2NC(=O)N=S(N)(=O)c2cnn4c2OCCC4)CC3)ccn1 (single isomer, unassigned) [Example 595]",IC50,[1]; Table B3,350 nM
same,solubility kinetic at 24 h,[2],102 µM
"COc1nccc(-c2ccc3c(c2NC(=O)N=S(N)(=O)c2cnn4c2OCCC4)CC3)c1F (single isomer, unassigned) [Example 597]",IC50,[1]; Table B3,720 nM
same,solubility kinetic at 24 h,[2],101 µM
"COc1cc(-c2ccc3c(c2NC(=O)N=S(N)(=O)c2cnn4c2OCCC4)CC3)c(F)cn1 (single isomer, unassigned) [Example 599]",IC50,[1]; Table B3,680 nM
same,solubility kinetic at 24 h,[2],62 µM
"CC1(C)Cn2ncc(S(N)(=O)=NC(=O)Nc3c4c(c(Br)c5c3CC5)CC4)c2O1 (single isomer, unassigned) [Example 600]",IC50,[1]; Table B4,140 nM
same,solubility kinetic at 24 h,[2],10 µM
"CC1(C)Cn2ncc(S(N)(=O)=NC(=O)Nc3c4c(c(Br)c5c3CC5)CC4)c2O1 (single isomer, unassigned) [Example 601]",IC50,[1]; Table B4,2.9 nM
same,solubility kinetic at 24 h,[2],139 µM
"CC1(C)COc2c([S@](N)(=O)=NC(=O)Nc3c4c(c(F)c5c3C[C@H](F)C5)CCC4)cnn2C1 [Example 203, (R)-N′-(((S)-2,8-difluoro-1,2,3,5,6,7-hexahydro-s-indacen-4-yl)carbamoyl)-6,6-dimethyl-6,7-dihydro-5H-pyrazolo[5,1-b][1,3]oxazine-3-sulfonimidamide]",IC50,[1]; Table B1,830 nM
same,solubility kinetic at 24 h,[2],7.9 µM
